Laboratory results taken from patent US8563717B2, “Adenine derivatives” (GlaxoSmithKline LLC, priority 2008, dated 2013).

What was measured:
Format in all cases: cell-based
[1] = test system: Interferon-α; assay: Induction of Interferon-α using cryopreserved human PBMCs; conditions: PBMC, 24 h incubation, normalised to 1 uM resiquimod, read-out: mean pEC50 for induction of IFN-α (converted)
Procedure, shortened: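 Cryopreserved healthy-donor PBMCs at 1×10^6 cells/ml in RPMI/10% FCS with 1000 units/ml IFN-gamma, exposed 24 h at 37 °C to 11-point two-fold compound dilutions. Supernatant IFN-α quantified by MSD electrochemiluminescence immunoassay; pEC50 from 4-parameter fit, normalised to 1 uM resiquimod and DMSO.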

[2] = test system: Interferon-α; assay: Induction of Interferon-α using fresh human PBMCs; conditions: PBMC, 24 hr incubation, relative to 2 μM resiquimod control, read-out: mean pEC50 for induction of IFN-α (converted)
Experimental: (§1) Assay for the Induction of Interferon-α and TNF-α Using Fresh Human Peripheral Blood Mononuclear Cells (PBMCs)
(§2) Compounds were dissolved and serially diluted in DMSO to give 100× the required concentration range using a Biomek 2000. 1 ul of test compound was transferred into 96-well tissue culture plates using a Biomek FX. Each compound was assayed in duplicate for each donor. Each plate contained a dilution series of the TLR7/8 agonist resiquimod as standard and Column 11 contained 1 μl of 200 μM resiquimod (giving a 2 μM final concentration, used to define the approximate maximal response to resiquimod).
(§3) Blood samples from two human donors were collected into sodium heparin (10 U/ml). 25 ml volumes of whole blood were overlaid onto 15 mls Histopaque in Leucosep tubes which were centrifuged at 800 g for 20 min and the band at the plasma/histopaque interface carefully removed. The collected cells were centrifuged at 2500 rpm for 10 min. and the pellet resuspended in 10 ml of media (RPMI 1640 (Low endotoxin) supplemented with 10% v/v foetal calf serum (FCS, low endotoxin) 100 U/ml penicillin G, 100 μg/ml streptomycin, 10 mM L-glutamine and 1× non-essential amino acids). A 1:20 dilution of the cells was prepared using trypan blue & the cells counted using a haemocytometer. The PBMCs were diluted to give a final concentration of 2×10^6/ml and 100 ul of this cells suspension was added to wells containing 1 μl of diluted test compound.
(§4) The cell preparations were incubated for 24 hr. (37° C., 95% air, 5% CO2) after which a sample of the supernatant was removed using the Biomek FX and assayed for both IFN-α and TNF-α using the MSD (Mesoscale Discovery) electrochemiluminescence assay platform. The IFN-α assay was carried out similarly to that described above. The TNF-α assay was carried out as per kit instructions (Cat No K111BHB).
(§5) Cytokine released was expressed as a percentage of the 2 μM resiquimod control (column 11). This percentage was plotted against compound concentration and the pEC50 for the response determined by non-linear least squares curve fitting. For the IFN-α responses generally a 4 parameter logistic model was selected. For the TNF responses where a clear maximum response was obtained (i.e. a well defined plateau in the response was observed) then a 4 parameter model was generally used. If the upper asymptote of the curve wasn't well defined then the curve fitting was generally constrained to a maximal response of 100% (i.e., to the response to 2 μM resiquimod) or to the response of the highest concentration tested if this was greater than the resiquimod response. Some curves were bell shaped for one or both cytokines and the cytokine data on the down slope of the bell shaped response (i.e. concentrations above those giving the maximal response) were generally excluded from the fit, usually with the exception of the concentration immediately above the peak response. Curve fitting thus concentrated on the up slope of the dose response curve.

[3] = test system: TNF-α; assay: Induction of TNF-α using fresh human PBMCs; conditions: PBMC, 24 hr incubation, relative to 2 μM resiquimod control, read-out: mean pEC50 for induction of TNF-α (converted)
Experimental: as §1, §2, §3, §4, §5

[4] = test system: IL-5; assay: Allergen-driven cytokine assay using fresh human PBMCs from atopic volunteers (IL-5); conditions: PBMC, PBMCs from at least two allergic donors, 10 μg/ml Timothy grass antigen, compared to the allergen control, read-out: concentration at which ≧50% reduction of IL-5 production observed
Experimental: (§6) Allergen-Driven Cytokine Assay Using Fresh Human Peripheral Blood Mononuclear Cells (PBMCs) from Atopic Volunteers
(§7) An assay based on co-culture of atopic human donor derived peripheral blood mononuclear cells (PBMCs) with allergen and test compounds was developed. After 5-6 days culture, cell supernatants were assayed for a range of cytokines.
(§8) Compounds were dissolved in DMSO, then serially diluted in growth medium (RPMI 1640 medium supplemented with 100 U/ml penicillin G, 100 μg/ml streptomycin, 10 mM L-glutamine) to give 4× the required concentration range in the presence of 0.04% DMSO. Each compound was assayed in triplicate at all concentrations.
(§9) Defibrinated human blood from volunteers known to be allergic to Timothy grass was centrifuged at 2500 rpm for 15 minutes. The upper layer of serum was collected and heat-inactivated at 56° C. for 30 minutes (HI-autologous serum). The lower layer of cells was resuspended in 50 ml PBS (+Ca +Mg), 25 ml diluted blood were overlaid onto 20 ml Lymphoprep in 50 ml tubes then centrifuged at 2500 rpm for 20 minutes at RT. The band at the serum/Lymphoprep interface was carefully removed. The collected cells were washed with PBS and re-suspended at 4×10^6/ml in growth medium with HI-autologous serum. PBMCs were seeded at 0.4×10^6 cells/well in flat-bottomed 96 well plates in the presence of 10 μg/ml Timothy grass antigen (Alk Abello) and test compounds at appropriate concentrations in a total volume of 200 ul.
(§10) Plates were incubated at 37° C. in 5% CO2 for up to 6 days. The cell medium from each well was harvested and stored at −20° C. prior to analysis. Cytokines and chemokines in supernatants were detected using Meso Scale Discovery 10 spot plates for Human TH1/Th2 cytokines.

[5] = test system: IL-13; assay: Allergen-driven cytokine assay using fresh human PBMCs from atopic volunteers (IL-13); conditions: PBMC, PBMCs from at least two allergic donors, 10 μg/ml Timothy grass antigen, compared to the allergen control, read-out: concentration at which ≧50% reduction of IL-13 production observed
Experimental: as §6, §7, §8, §9, §10

SMILES	EC50 [2] [nM]	EC50 [3] [nM]	IC50 [4] [nM]	IC50 [5] [nM]	EC50 [1] [nM]
CCCCOc1nc(N)c2[nH]c(=O)n(CCC3CCN(CC)CC3)c2n1 [Example 8]	< 100	> 1000	≤ 8	≤ 40	< 1580
CCCCOc1nc(N)c2[nH]c(=O)n(CCCC3CCN(CC)CC3)c2n1 [Example 9]	< 10	> 1000	≤ 8	≤ 40	< 1580
CCC[C@H](C)Oc1nc(N)c2[nH]c(=O)n(CCC3CCN(C(C)C)CC3)c2n1 [Example 92, 6-Amino-2-{[(1S)-1-methylbutyl]oxy}-9-{2-[1-(1-methylethyl)-4-piperidinyl]ethyl}-7,9-dihydro-8H-purin-8-one]	< 10	> 1000	≤ 8	≤ 40	< 1580
CCCCOc1nc(N)c2[nH]c(=O)n(CCCC3CCN(CCCC)CC3)c2n1 [Example 96, 6-Amino-2-(butyloxy)-9-[3-(1-butyl-4-piperidinyl)propyl]-7,9-dihydro-8H-purin-8-one]	< 1	> 1000	–	–	< 1580
CCCCOc1nc(N)c2[nH]c(=O)n(CCCC3CCN(C4CCCCC4)CC3)c2n1 [Example 102, 6-Amino-2-(butyloxy)-9-[3-(1-cyclohexyl-4-piperidinyl)propyl]-7,9-dihydro-8H-purin-8-one]	< 10	> 1000	–	–	< 1580
CCC[C@H](C)Oc1nc(N)c2[nH]c(=O)n(CCCC3CCNCC3)c2n1 [Example 104, 6-Amino-2-{[(1S)-1-methylbutyl]oxy}-9-[3-(4-piperidinyl)propyl]-7,9-dihydro-8H-purin-8-one]	< 0.316	> 31.6	–	–	< 1580
CCC[C@H](C)Oc1nc(N)c2[nH]c(=O)n(CCCC3CCN(C(C)C)CC3)c2n1 [Example 106, 6-Amino-2-{[(1S)-1-methylbutyl]oxy}-9-{3-[1-(1-methylethyl)-4-piperidinyl]propyl}-7,9-dihydro-8H-purin-8-one]	< 0.316	> 31.6	–	–	< 1580
CCC[C@H](C)Oc1nc(N)c2[nH]c(=O)n(CCCCC3CCN(CC)CC3)c2n1 [Example 119, 6-Amino-9-[4-(1-ethyl-4-piperidinyl)butyl]-2-{[(1S)-1-methylbutyl]oxy}-7,9-dihydro-8H-purin-8-one]	< 0.316	> 31.6	–	–	< 1580

Now from value to compound, other results behind:

EC50 [2] [nM]	EC50 [3] [nM]	IC50 [4] [nM]	IC50 [5] [nM]	SMILES	EC50 [1] [nM]
< 10	> 1000	≤ 8	≤ 40	CCCCOc1nc(N)c2[nH]c(=O)n(CCCCC3CCN(CC)CC3)c2n1 [Example 10, 6-Amino-2-(butyloxy)-9-[4-(1-ethyl-4-piperidinyl)butyl]-7,9-dihydro-8H-purin-8-one]	< 1580
< 1	> 1000	–	–	CCCCOc1nc(N)c2[nH]c(=O)n(CCCCC3CCN(CCC)CC3)c2n1 [Example 108, 6-Amino-2-(butyloxy)-9-[4-(1-propyl-4-piperidinyl)butyl]-7,9-dihydro-8H-purin-8-one]	< 1580
< 0.316	> 31.6	–	–	CCCCOc1nc(N)c2[nH]c(=O)n(CCCCCC3CCNCC3)c2n1 [Example 122, 6-Amino-2-(butyloxy)-9-[5-(4-piperidinyl)pentyl]-7,9-dihydro-8H-purin-8-one]	< 1580
< 100	> 1000	–	–	CC(C)Oc1nc(N)c2[nH]c(=O)n(CCCCC3CCNCC3)c2n1 [Example 135, 6-Amino-2-[(1-methylethyl)oxy]-9-[4-(4-piperidinyl)butyl]-7,9-dihydro-8H-purin-8-one]	< 1580
